Legend:
[1] = molecular target: T1, human adenosine A2a receptor (Homo sapiens, UniProt P29274); test: Adenosine A2a Receptor Functional Assay (A2AGAL2); format: cell-based; conditions: CHO-K1 cells, cAMP inducible beta-galactosidase reporter, 15 nM NECA agonist challenge
T1 construct: expressed in transfected cells; host or cells: CHO-K1
Method: Adenosine A2a Receptor Functional Assay (A2AGAL2)
To initiate the functional assay, cryopreserved CHO-K1 cells overexpressing the human adenosine A2a receptor and containing a cAMP inducible beta-galactosidase reporter gene were thawed, centrifuged, DMSO containing media removed, and then seeded with fresh culture media into clear 384-well tissue culture treated plates (BD #353961) at a concentration of 10K cells/well. Prior to assay, these plates were cultured for two days at 37° C., 5% CO2, 90% Rh. On the day of the functional assay, culture media was removed and replaced with 45 uL assay medium (Hams/F-12 Modified (Mediatech # 10-080CV) supplemented w/0.1% BSA). Test compounds were diluted and 11 point curves created at a 1000× concentration in 100% DMSO. Immediately after addition of assay media to the cell plates, 50 nL of the appropriate test compound antagonist or agonist control curves were added to cell plates using a Cartesian Hummingbird. Compound curves were allowed to incubate at room temperature on cell plates for approximately 15 minutes before addition of a 15 nM NECA (Sigma E2387) agonist challenge (5 uL volume). A control curve of NECA, a DMSO/Media control, and a single dose of Forskolin (Sigma F3917) were also included on each plate. After additions, cell plates were allowed to incubate at 37° C., 5% CO2, 90% Rh for 5.5-6 hours. After incubation, media was removed, and cell plates were washed 1×50 uL with DPBS w/o Ca & Mg (Mediatech 21-031-CV). Into dry wells, 20 uL of 1× Reporter Lysis Buffer (Promega E3971 (diluted in dH2O from 5× stock)) was added to each well and plates frozen at −20° C. overnight. For β-galactosidase enzyme calorimetric assay, plates were thawed out at room temperature and 20 μL 2× assay buffer (Promega) was added to each well. Color was allowed to develop at 37° C., 5% CO2, 90% Rh for 1-1.5 h or until reasonable signal appeared. The calorimetric reaction was stopped with the addition of 60 μL/well 1M sodium carbonate. Plates were counted at 405 nm on a SpectraMax Microplate Reader (Molecular Devices). Data was analyzed in Microsoft Excel and IC/EC50 curves were fit using a standardized macro.

[2] = molecular target: T2, human adenosine A1 receptor (Homo sapiens, UniProt P30542); test: Adenosine A1 Receptor Functional Assay (A1GAL2); format: cell-based; conditions: CHO-K1 cells, cAMP inducible beta-galactosidase reporter, 4 nM r-PIA/1 uM Forskolin challenge
T2 construct: expressed in transfected cells; host or cells: CHO-K1
T2 sequence (P30542 1-326): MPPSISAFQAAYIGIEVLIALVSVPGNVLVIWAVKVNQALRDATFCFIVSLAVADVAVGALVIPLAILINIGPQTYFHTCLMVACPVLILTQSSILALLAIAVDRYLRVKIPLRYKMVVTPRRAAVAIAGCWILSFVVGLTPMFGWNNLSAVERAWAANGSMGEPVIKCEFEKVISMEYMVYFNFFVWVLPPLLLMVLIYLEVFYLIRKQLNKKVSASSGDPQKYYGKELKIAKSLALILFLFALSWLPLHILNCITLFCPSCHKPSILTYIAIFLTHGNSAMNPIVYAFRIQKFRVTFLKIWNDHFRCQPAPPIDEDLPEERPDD
Method: Adenosine A1 Receptor Functional Assay (A1GAL2)
To initiate the functional assay, cryopreserved CHO-K1 cells overexpressing the human adenosine A1 receptor and containing a cAMP inducible beta-galactosidase reporter gene were thawed, centrifuged, DMSO containing media removed, and then seeded with fresh culture media into clear 384-well tissue culture treated plates (BD #353961) at a concentration of 10K cells/well. Prior to assay, these plates were cultured for two days at 37° C., 5% CO2, 90% Rh. On the day of the functional assay, culture media was removed and replaced with 45 uL assay medium (Hams/F-12 Modified (Mediatech # 10-080CV) supplemented w/0.1% BSA). Test compounds were diluted and 11 point curves created at a 1000× concentration in 100% DMSO. Immediately after addition of assay media to the cell plates, […] of the appropriate test compound antagonist or agonist control curves were added to cell plates using a Cartesian Hummingbird. Compound curves were allowed to incubate at room temperature on cell plates for approximately 15 minutes before addition of a 4 nM r-PIA (Sigma P4532)/1 uM Forskolin (Sigma F3917) agonist challenge (5 uL volume). A control curve of r-PIA in 1 uM Forskolin, a DMSO/Media control, and a single dose of Forskolin were also included on each plate. After additions, cell plates were allowed to incubate at 37° C., 5% CO2, 90% Rh for 5.5-6 hours. After incubation, media was removed, and cell plates were washed 1×50 uL with DPBS w/o Ca & Mg (Mediatech 21-031-CV).
Into dry wells, 20 uL of 1× Reporter Lysis Buffer (Promega E3971 (diluted in dH2O from 5× stock)) was added to each well and plates frozen at −20° C. overnight. For β-galactosidase enzyme calorimetric assay, plates were thawed out at room temperature and 20 μL 2× assay buffer (Promega) was added to each well. Color was allowed to develop at 37° C., 5% CO2, 90% Rh for 1-1.5 h or until reasonable signal appeared. The calorimetric reaction was stopped with the addition of 60 μL/well 1M sodium carbonate. Plates were counted at 405 nm on a SpectraMax Microplate Reader (Molecular Devices). Data was analyzed in Microsoft Excel and IC/EC50 curves were fit using a standardized macro.

T1 sequence (P29274 whole entry): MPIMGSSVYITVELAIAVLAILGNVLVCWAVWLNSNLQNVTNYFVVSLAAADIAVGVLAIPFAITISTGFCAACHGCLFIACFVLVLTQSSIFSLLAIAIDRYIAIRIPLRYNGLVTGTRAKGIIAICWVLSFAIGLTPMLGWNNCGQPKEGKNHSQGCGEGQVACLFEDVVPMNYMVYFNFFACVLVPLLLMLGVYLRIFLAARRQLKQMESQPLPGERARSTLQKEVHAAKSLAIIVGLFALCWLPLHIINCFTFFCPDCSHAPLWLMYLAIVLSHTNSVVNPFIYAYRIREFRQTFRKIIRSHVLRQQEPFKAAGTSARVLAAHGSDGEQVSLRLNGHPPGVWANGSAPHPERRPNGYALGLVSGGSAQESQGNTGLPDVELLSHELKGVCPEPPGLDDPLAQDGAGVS

Ki [1] [µM]	Ki [2] [µM]	Compound
0.117	0.785	Nc1nc(-c2cccc(Cl)c2)nc2sc(CN3CCOCC3)cc12 [Example 49, 2-(3-Chloro-phenyl)-6-morpholin-4-ylmethyl-thieno[2,3-d]pyrimidin-4-ylamine]
0.114	0.333	C[C@@H]1CCC[C@H](C)N1Cc1cc2c(N)nc(-c3ccc(C4CC4)o3)nc2s1 [Example 12, 2-(5-Cyclopropyl-furan-2-yl)-6-(2,6-dimethyl-piperidin-1-ylmethyl)-thieno[2,3-d]pyrimidin-4-ylamine]
1.06	3.41	Nc1nc(-c2cc(F)cc(F)c2)nc2sc(CN3CCC(F)CC3)cc12 [Example 55, 2-(3,5-Difluoro-phenyl)-6-(4-fluoro-piperidin-1-ylmethyl)-thieno[2,3-d]pyrimidin-4-ylamine]
0.012	0.0396	C[C@@H]1CCC[C@H](C)N1Cc1cc2c(N)nc(-c3ccc(Br)o3)nc2s1 [Example 19, 2-(5-Bromo-furan-2-yl)-6-(2,6-dimethyl-piperidin-1-ylmethyl)-thieno[2,3-d]pyrimidin-4-ylamine]
0.0424	1.67	Nc1nc(-c2ccc(C(F)F)o2)nc2sc(CN3CCC(F)CC3)cc12 [Example 100, 2-(5-Difluoromethyl-furan-2-yl)-6-(4-fluoro-piperidin-1-ylmethyl)-thieno[2,3-d]pyrimidin-4-ylamine]
0.356	3.25	Nc1nc(-c2ncco2)nc2sc(CN3CCOCC3)cc12 [Example 75, 6-Morpholin-4-ylmethyl-2-oxazol-2-yl-thieno[2,3-d]pyrimidin-4-ylamine]
0.154	0.762	N#Cc1cccc(-c2nc(N)c3cc(CN4CCCC4c4ccccc4)sc3n2)c1 (stereo not drawn) [Example 20, 3-[4-Amino-6-(2-phenyl-pyrrolidin-1-ylmethyl)-thieno[2,3-d]pyrimidin-2-yl]-benzonitrile]
0.00823	1.24	Nc1nc(-c2ccco2)nc2sc(CN3CCC(F)(F)C3)cc12 [Example 94, 6-(3,3-Difluoro-pyrrolidin-1-ylmethyl)-2-furan-2-yl-thieno[2,3-d]pyrimidin-4-ylamine]
0.61	17.8	Nc1nc(-c2ccc(C(F)F)o2)nc2sc(CN3CCC(F)(F)CC3)cc12 [Example 99, 2-(5-Difluoromethyl-furan-2-yl)-6-(4,4-difluoro-piperidin-1-ylmethyl)-thieno[2,3-d]pyrimidin-4-ylamine]
0.0736	0.331	Nc1nc(-c2cccc(F)c2)nc2sc(CN3CCSCC3)cc12 [Example 58, 2-(3-Fluoro-phenyl)-6-thiomorpholin-4-ylmethyl-thieno[2,3-d]pyrimidin-4-ylamine]
0.245	2.73	Nc1nc(-c2nccs2)nc2sc(CN3CCOCC3)cc12 [Example 25, 6-Morpholin-4-ylmethyl-2-thiazol-2-yl-thieno[2,3-d]pyrimidin-4-ylamine]
0.816	2.44	Nc1nc(-c2cccc(O)c2)nc2sc(CN3CCOCC3)cc12 [Example 106, 3-(4-Amino-6-morpholin-4-ylmethyl-thieno[2,3-d]pyrimidin-2-yl)-phenol]
0.0913	1.91	N#Cc1ccc(-c2nc(N)c3cc(CN4CCC(F)CC4)sc3n2)s1 [Example 72, 5-[4-Amino-6-(4-fluoro-piperidin-1-ylmethyl)-thieno[2,3-d]pyrimidin-2-yl]-thiophene-2-carbonitrile]
> 1.36	> 0.594	CC(C)c1ccc(-c2nc(N)c3cc(CN4CCOCC4)sc3n2)o1 [Example 21, 2-(5-Isopropyl-furan-2-yl)-6-morpholin-4-ylmethyl-thieno[2,3-d]pyrimidin-4-ylamine]
0.303	3.22	COc1cccc(-c2nc(N)c3cc(CN4CCC(F)CC4)sc3n2)c1 [Example 71, 6-(4-Fluoro-piperidin-1-ylmethyl)-2-(3-methoxy-phenyl)-thieno[2,3-d]pyrimidin-4-ylamine]

From US20100093702A1, “METHYLENE AMINES OF THIENO[2,3-d]PYRIMIDINE AND THEIR USE AS ADENOSINE A2a RECEPTOR ANTAGONISTS” (priority 2008, published 2010)
